{"source": "patent US20190099413A1", "about": "“DRUG FOR CANCER THERAPY CHARACTERIZED IN THAT AXL INHIBITOR AND IMMUNE CHECKPOINT INHIBITOR ARE ADMINISTERED IN COMBINATION” (ONO PHARMACEUTICAL CO., LTD., priority 2016, published 2019)", "system": "mouse colon cancer cell line MC38", "test": "Anti-tumor action on mouse colon cancer cell line MC38 subcutaneous cancer-bearing model", "type": "in vivo", "details": "for average volume of tumors on day 14: C57/BL6 mice; for Number of cases where tumor was eliminated: observed until 28th day, cases/n; for mice in which cancer had been eliminated: single administration or combined use with 4H2", "procedure": "Biological Example 1: Evaluation of Anti-Tumor Action by Combined Use of Compound A and Anti-PD-1 Antibody on Mouse Colon Cancer Cell Line MC38 Subcutaneous Cancer-Bearing Model (In Vivo)\nFor the compound A, mouse feed CRF-1 containing 0.0013% or 0.013% compound A was manufactured by Oriental Yeast Co., Ltd. so as to be administered at a dose of 2 or 20 mg/kg/day via diet. 4H2 as the anti-mouse PD-1 antibody, which had been prepared in KITAYAMA LABES CO., LTD., was obtained. C57/BL6 mouse colon cancer cell line MC38 was subcutaneously transplanted into dorsal parts of […] syngeneic mice (C57/BL6, female, 6 weeks old (Charles River Laboratories Japan, Inc.)) to produce MC38 subcutaneous cancer-bearing mice. On the day when the average of tumor volumes reached 150 mm^3, group assignment was carried out based on the tumor volumes (the day on which administration was started was defined as Day 0). To the MC38 subcutaneous cancer-bearing mice, PBS (on days 0, 6, 12, 18, and 24, intraperitoneal administration, n=9), 4H2 (on Day 0, 20 mg/kg/day and on days 6, 12, 18, and 24, 10 mg/kg/day, intraperitoneal administration, n=8), the compound A (on days 0 to 28, 2 mg/kg, administration via diet (n=9)), the compound A (on days 0 to 28, 20 mg/kg, administration via diet (n=9)), combined use of 4H2 and the compound A (compound A, 2 mg/kg (n=9)), and combined use of 4H2 and the compound A (compound A, 20 mg/kg (n=9)) were administered. Change of the volume of tumor was observed continuously until the 28th day. Note here that, from the viewpoint of the animal ethics, a mouse whose tumor exceeded 3000 mm^3 in volume was euthanatized, and evaluation for the group to which the euthanatized mouse belonged was stopped at this point."}
{"smiles": "COc1cc2nccc(Oc3ccc(NC(=O)c4cc5c(n(-c6ccccc6)c4=O)CCCC5=O)nc3)c2cc1OC", "note": "[Compound A, N-{5-[(6,7-dimethoxy-4-quinolinyl)oxy]-2-pyridinyl}-2,5-dioxo-1-phenyl-1,2,5,6,7,8-hexahydro-3-quinolinecarboxamide]", "values": [{"measurement": "average volume of tumors on day 14", "setting": "compound A 2 mg/kg via diet days 0 to 28, alone or combined with 4H2 (20 then 10 mg/kg/day i.p.)", "result": 1379.5, "unit": "mm^3"}, {"measurement": "Number of cases where tumor was eliminated", "setting": "compound A 2 mg/kg via diet days 0 to 28, alone or combined with 4H2", "result": "1/9"}, {"measurement": "mice in which cancer had been eliminated", "setting": "compound A 2 mg/kg", "result": "one"}, {"measurement": "average volume of tumors on day 14", "setting": "compound A 20 mg/kg via diet days 0 to 28, alone or combined with 4H2 (20 then 10 mg/kg/day i.p.)", "result": 639.3, "unit": "mm^3"}, {"measurement": "Number of cases where tumor was eliminated", "setting": "compound A 20 mg/kg via diet days 0 to 28, alone or combined with 4H2", "result": "1/9"}, {"measurement": "mice in which cancer had been eliminated", "setting": "compound A 20 mg/kg", "result": "one"}]}
